From paper PMC4854023, “Orthology Analysis and In Vivo Complementation Studies to Elucidate the Role of DIR1 during Systemic Acquired Resistance in Arabidopsis thaliana and Cucumis sativus” (Frontiers in Plant Science, 2016) come the findings set out here.

Experiment [1] concerns the target T1, CsDIR1 (Cucumis sativus, UniProt A0A0A0K4Q7).
T1 construct: gene Csa_7G372360; Rosetta Gami E. coli; S-Tag thrombin purification; His-tagged
T1 sequence (A0A0A0K4Q7 25-103): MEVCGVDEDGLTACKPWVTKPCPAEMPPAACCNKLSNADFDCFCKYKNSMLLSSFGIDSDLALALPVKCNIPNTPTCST
Description: TNS fluorescence displacement. It is filed as binding. Particulars: 16 uM ligand; TNS 5 uM (methods) or 3 uM; pH 7 buffer; in cavity or allosteric.

The target in experiment [2] is T2, CsDIR2 (Cucumis sativus, UniProt A0A0A0KZ41).
T2 construct: gene Csa_4G017140; Rosetta Gami E. coli; S-Tag thrombin purification; His-tagged
T2 sequence (A0A0A0KZ41 26-101): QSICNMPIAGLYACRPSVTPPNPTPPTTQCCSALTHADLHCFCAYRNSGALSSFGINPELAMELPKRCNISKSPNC
Description: TNS fluorescence displacement. The format is binding. Particulars: 16 uM ligand; TNS 5 uM (methods) or 3 uM; pH 7 buffer; in cavity or allosteric.

Structures are written as SMILES.

In the case of `O=C(O)CCCCCCCC(=O)O` [AzA], the “% lower TNS fluorescence than MES control” value is ~ 25% in experiment [1] and ~ 30% in experiment [2].

As to `O=C(O)[C@@H]1CCCCN1` [Pip], the “% lower TNS fluorescence than MES control” value in experiment [1] is recorded as ~ 25%.
